Patent publication US20160207928A1, “NOVEL COMPOUNDS FOR THE TREATMENT OF CANCER” (BAYER PHARMA AKTIENGESELLSCHAFT, priority 2013, published 2016)

Molecular target: T1, human kinase Mps-1 (Homo sapiens, UniProt P33981)
T1 construct: N-terminally GST-tagged human full length recombinant Mps-1 kinase; purchased Invitrogen, Karslruhe, Germany PV4071
T1 sequence (P33981 1-857): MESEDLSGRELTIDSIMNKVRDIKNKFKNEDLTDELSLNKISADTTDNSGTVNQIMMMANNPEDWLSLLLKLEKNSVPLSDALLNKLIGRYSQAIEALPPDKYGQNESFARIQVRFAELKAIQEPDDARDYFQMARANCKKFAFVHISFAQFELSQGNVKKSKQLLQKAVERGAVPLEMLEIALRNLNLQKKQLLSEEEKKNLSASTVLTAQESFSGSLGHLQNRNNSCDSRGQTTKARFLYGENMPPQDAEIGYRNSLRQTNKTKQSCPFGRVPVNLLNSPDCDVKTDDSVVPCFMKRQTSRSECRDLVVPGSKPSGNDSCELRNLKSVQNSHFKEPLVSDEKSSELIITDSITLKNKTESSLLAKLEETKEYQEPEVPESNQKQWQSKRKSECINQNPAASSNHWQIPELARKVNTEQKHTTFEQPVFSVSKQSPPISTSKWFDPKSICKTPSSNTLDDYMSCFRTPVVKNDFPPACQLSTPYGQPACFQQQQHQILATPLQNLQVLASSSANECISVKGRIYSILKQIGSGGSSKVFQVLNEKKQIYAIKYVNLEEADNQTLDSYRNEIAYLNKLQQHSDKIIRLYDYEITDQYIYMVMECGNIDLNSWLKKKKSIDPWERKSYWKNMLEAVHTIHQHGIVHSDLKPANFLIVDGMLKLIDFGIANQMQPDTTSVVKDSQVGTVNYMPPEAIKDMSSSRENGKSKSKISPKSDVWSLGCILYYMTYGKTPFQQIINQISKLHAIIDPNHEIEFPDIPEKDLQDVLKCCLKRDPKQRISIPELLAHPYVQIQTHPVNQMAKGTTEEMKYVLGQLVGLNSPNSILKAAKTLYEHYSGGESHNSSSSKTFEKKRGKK
Assay: Mps-1 kinase assay (TR-FRET, 10 μM ATP)
Assay type: biochemical
Conditions: N-terminally GST-tagged human full length recombinant Mps-1, read-out: Mps-1 Inhibition, IC50 (Assay with 10 μM ATP)
Method: The human kinase Mps-1 phosphorylates a biotinylated substrate peptide. Detection of the phosphorylated product is achieved by time-resolved fluorescence resonance energy transfer (TR-FRET) from Europium-labelled anti-phospho-Serine/Threonine antibody as donor to streptavidin Labelled with cross-linked allophycocyanin (SA-XLent) as acceptor. Compounds are tested for their inhibition of the kinase activity.
N-terminally GST-tagged human full length recombinant Mps-1 kinase (purchased from Invitrogen, Karslruhe, Germany, cat. no PV4071) was used. As substrate for the kinase reaction a biotinylated peptide of the amino-acid sequence PWDPDDADITEILG (C-terminus in amide form, purchased from Biosynthan GmbH, Berlin) was used.
For the assay 50 nl of a 100-fold concentrated solution of the test compound in DMSO was pipetted into a black low volume 384 well microtiter plate (Greiner Bio-One, Frickenhausen, Germany), 2 μl of a solution of Mps-1 in assay buffer [0.1 mM sodium-ortho-vanadate, 10 mM MgCl2, 2 mM DTT, 25 mM Hepes pH 7.7, 0.05% BSA, 0.001% Pluronic F-127] were added and the mixture was incubated for 15 min at 22° C. to allow pre-binding of the test compounds to Mps-1 before the start of the kinase reaction. Then the kinase reaction was started by the addition of 3 μl of a solution of […] (ATP, 16.7 μM=>final conc. in the 5 μl assay volume is 10 μM) and peptide substrate (1.67 μM=>final conc. in the 5 μl assay volume is 1 μM) in assay buffer and the resulting mixture was incubated for a reaction time of 60 min at 22° C. The concentration of Mps-1 in the assay was adjusted to the activity of the enzyme lot and was chosen appropriate to have the assay in the linear range, typical enzyme concentrations were in the range of about 1 nM (final conc. in the 5 μl assay volume). The reaction was stopped by the addition of 3 μl of a solution of HTRF detection reagents (100 mM Hepes pH 7.4, 0.1% BSA, 40 mM EDTA, 140 nM Streptavidin-XLent [#61GSTXLB, Fa. Cis Biointernational, Marcoule, France], 1.5 nM anti-phospho(Ser/Thr)-Europium-antibody [#AD0180, PerkinElmer LAS, Rodgau-Jügesheim, Germany].
The resulting mixture was incubated 1 h at 22° C. to allow the binding of the phosphorylated peptide to the anti-phospho(Ser/Thr)-Europium-antibody. Subsequently the amount of phosphorylated substrate was evaluated by measurement of the resonance energy transfer from the Europium-labelled anti-phospho(Ser/Thr) antibody to the Streptavidin-XLent. Therefore, the fluorescence emissions at 620 nm and 665 nm after excitation at 350 nm was measured in a Viewlux TR-FRET reader (PerkinElmer LAS, Rodgau-Jügesheim, Germany). The “blank-corrected normalized ratio” (a Viewlux specific readout, similar to the traditional ratio of the emissions at 665 nm and at 622 nm, in which blank and Eu-donor crosstalk are subtracted from the 665 nm signal before the ratio is calculated) was taken as the measure for the amount of phosphorylated substrate. The data were normalised (enzyme reaction without inhibitor=0% inhibition, all other assay components but no enzyme=100% inhibition).

SMILES	IC50 [nM]
COc1cc(C(=O)N2CCOCC2)ccc1Nc1nc2ccc(-c3ccc(NC(=O)Cc4ccc(F)cc4)cc3)nn2n1 [Example 1.1, 2-(4-fluorophenyl)-N-[4-(2-{[2-methoxy-4-(morpholin-4-ylcarbonyl)phenyl]amino}[1,2,4]triazolo[1,5-b]pyridazin-6-yl)phenyl]acetamide]	≤ 1
COc1cc(C(C)(C)O)ccc1Nc1nc2ccc(-c3ccc(NC(=O)Cc4ccc(F)cc4)cc3)nn2n1 [Example 1.2, 2-(4-fluorophenyl)-N-[4-(2-{[4-(2-hydroxypropan-2-yl)-2-methoxyphenyl]amino}[1,2,4]triazolo[1,5-b]pyridazin-6-yl)phenyl]acetamide]	≤ 1
N#Cc1ccccc1Nc1nc2cnc(-c3ccc(NC(=O)Cc4ccc(F)cc4)cc3)cn2n1 [Example 2.1, N-(4-{2-[(2-cyanophenyl)amino][1,2,4]triazolo[1,5-a]pyrazin-6-yl}phenyl)-2-(4-fluorophenyl)acetamide]	≤ 1
N#Cc1c(F)cccc1Nc1nc2cnc(-c3ccc(NC(=O)Cc4ccc(F)cc4)cc3)cn2n1 [Example 2.2, N-(4-{2-[(2-cyano-3-fluorophenyl)amino][1,2,4]triazolo[1,5-a]pyrazin-6-yl}phenyl)-2-(4-fluorophenyl)acetamide]	≤ 1
N#Cc1ccccc1Nc1nc2cnc(-c3ccc(NC(=O)Cc4ccccc4)cc3)cn2n1 [Example 2.3, N-(4-{2-[(2-cyanophenyl)amino][1,2,4]triazolo[1,5-a]pyrazin-6-yl}phenyl)-2-phenylacetamide]	2.6
COc1cc(N2CCN(C)CC2)ccc1Nc1nc2cnc(-c3ccc(NC(=O)Cc4ccc(F)cc4)cc3)cn2n1 [Example 2.4, 2-(4-fluorophenyl)-N-[4-(2-{[2-methoxy-4-(4-methylpiperazin-1-yl)phenyl]amino}[1,2,4]triazolo[1,5-a]pyrazin-6-yl)phenyl]acetamide]	≤ 1
N#Cc1c(F)cccc1Nc1nc2cnc(-c3ccc(NC(=O)Cc4ccccc4)cc3)cn2n1 [Example 2.5, N-(4-{2-[(2-cyano-3-fluorophenyl)amino][1,2,4]triazolo[1,5-a]pyrazin-6-yl}phenyl)-2-phenylacetamide]	≤ 1
N#Cc1ccccc1Nc1nc2cnc(-c3ccc(NC(=O)Cc4ccc(F)c(F)c4)cc3)cn2n1 [Example 2.6, N-(4-{2-[(2-cyanophenyl)amino][1,2,4]triazolo[1,5-a]pyrazin-6-yl}phenyl)-2-(3,4-difluorophenyl)acetamide]	2.1
N#Cc1c(F)cccc1Nc1nc2cnc(-c3ccc(NC(=O)Cc4ccc(F)c(F)c4)cc3)cn2n1 [Example 2.7, N-(4-{2-[(2-cyano-3-fluorophenyl)amino][1,2,4]triazolo[1,5-a]pyrazin-6-yl}phenyl)-2-(3,4-difluorophenyl)acetamide]	2.9
COc1cc(S(C)(=O)=O)ccc1Nc1nc2cnc(-c3ccc(NC(=O)Cc4ccc(F)cc4)cc3)cn2n1 [Example 2.8, 2-(4-fluorophenyl)-N-[4-(2-{[2-methoxy-4-(methylsulfonyl)phenyl]amino}[1,2,4]triazolo[1,5-a]pyrazin-6-yl)phenyl]acetamide]	≤ 1
Cc1cc(-c2cn3nc(Nc4ccccc4C#N)nc3cn2)cc(C)c1O [Example 3.1, 2-{[6-(4-hydroxy-3,5-dimethylphenyl)[1,2,4]triazolo[1,5-a]pyrazin-2-yl]amino}benzonitrile]	33.5
N#Cc1ccccc1Nc1nc2cnc(-c3ccc(NC(=O)CC4CC4)cc3)cn2n1 [Example 3.2, N-(4-{2-[(2-cyanophenyl)amino][1,2,4]triazolo[1,5-a]pyrazin-6-yl}phenyl)-2-cyclopropylacetamide]	22.4
N#Cc1ccccc1Nc1nc2cnc(-c3cccc(C(=O)NC4CC4)c3)cn2n1 [Example 3.3, 3-{2-[(2-cyanophenyl)amino][1,2,4]triazolo[1,5-a]pyrazin-6-yl}-N-cyclopropylbenzamide]	84.1
CCNC(=O)c1cccc(-c2cn3nc(Nc4ccccc4C#N)nc3cn2)c1 [Example 3.4, 3-{2-[(2-cyanophenyl)amino][1,2,4]triazolo[1,5-a]pyrazin-6-yl}-N-ethylbenzamide]	206
